How the values were obtained:
Assay type in all cases: physicochemical
[1] = In vitro dissolution test of Drug 1 compositions in PBS pH 6.5, room temperature, 0.45 μm syringe filter, UV; 50 μg/mL if all drug dissolved
Description: Example 1 consisted of Adsorbate 1 administered in solution with a lipophilic microphase-forming material. At time 0, a 4 mg sample of Adsorbate 1 was added to 40 mL phosphate buffered saline (PBS) at pH 6.5 and 290 mOsm/kg, containing 1 mg/mL of the lipophilic microphase-forming material Cremaphor RH40 (available from BASF of Mount Olive, N.J.). The concentration of drug would have been 50 μg/mL, if all of the drug had dissolved. The test solution was stirred at room temperature in a syringe equipped with a Gelman Acrodisc 13 CR 0.45 μm PTFE filter. At each sample time, 1 to 2 mL test solution was pushed through the filter and analyzed using UV to determine the concentration of Drug 1 in solution. Samples were collected at 0.5, 1, 2, 3, 5, 10, 15, 20, 30, 45, 60, 90, 120, 150, 250 and 1200 minutes.
(§1) Control 1 consisted of Adsorbate 1 administered into PBS without the lipophilic microphase-forming material, and a sufficient amount of adsorbate was added so that the concentration of drug would have been 50 μg/mL, if all of the drug had dissolved. An in vitro dissolution test was performed with Control 1 using the procedures outlined for Example 1 and the results are shown in Table 1.
Control 2 consisted of crystalline Drug 1 administered into PBS containing 1 mg/mL of the lipophilic microphase-forming material Cremophor RH40, and a sufficient amount of Drug 1 was added so that the concentration would have been 50 μg/mL, if all of the drug had dissolved. An in vitro dissolution test was performed with Control 2 using the procedures outlined for Example 1 and the results are shown in Table 1.
as §1, with “Control 3” for “Control 1”, “of crystalline Drug” for “of Adsorbate”, “of crystalline Drug 1” for “of adsorbate”
Example 2 consisted of Adsorbate 1 administered in solution with a different lipophilic microphase-forming material. At time 0, a 4 mg sample of Adsorbate 1 was added to 40 mL phosphate buffered saline (PBS) at pH 6.5 and 290 mOsm/kg, containing 1 mg/mL of 5/2 (wt/wt) Cremaphor RH40/Capmul MCM (available from Abitec of Janesville, Wis.); the concentration of drug would have been 50 μg/mL, if all of the drug had dissolved. The test solution was stirred at room temperature in a syringe equipped with a Gelman Acrodisc 13 CR 0.45 μm PTFE filter, as described for Example 1. Samples were collected and analyzed using UV to determine the concentration of Drug 1 in solution.
Control 4 consisted of crystalline Drug 1 administered into PBS containing 5/2 (wt/wt) Cremophor RH40/Capmul MCM, and a sufficient amount of Drug 1 was added so that the concentration would have been 50 μg/mL, if all of the drug had dissolved.

[2] = In vitro dissolution test of Drug 2 compositions in PBS pH 6.5, room temperature, 0.45 μm syringe filter, UV; 50 μg/mL if all drug dissolved
Description: Example 3 consisted of Adsorbate 2 administered into solution with a lipophilic microphase-forming material. At time 0, a 6.656 mg sample of Adsorbate 2 was added to 40 mL of phosphate buffered saline (PBS) at pH 6.5 and 290 mOsm/kg, containing 1 mg/mL of PEG 6000 distearate (the concentration of drug would have been 50 μg/mL, if all of the drug had dissolved). The test solution was stirred at room temperature in a syringe equipped with a Gelman Acrodisc 13 CR 0.45 μm PTFE filter, as described for Example 1. Samples were collected and analyzed using UV to determine the concentration of Drug 2 in solution.
Control 5 consisted of Adsorbate 2 administered into PBS without the lipophilic microphase-forming material, and a sufficient amount of sample was added so that the concentration of drug would have been 50 μg/mL, if all of the drug had dissolved.
Control 6 consisted of crystalline Drug 2 administered into PBS containing PEG 6000 Distearate, and a sufficient amount of Drug 2 was added so that the concentration would have been 50 μg/mL, if all of the drug had dissolved.
Control 7 consisted of crystalline Drug 2 administered into PBS without the lipophilic microphase-forming material, and a sufficient amount of sample was added so that the concentration of drug would have been 50 μg/mL, if all of the drug had dissolved.

[3] = In vitro dissolution test of Drug 3 compositions (Example 4 in MOPS buffer pH 7.4, controls given as PBS), room temperature, 0.45 μm syringe filter, UV; 50 μg/mL if all drug dissolved
Description: Example 4 consisted of Adsorbate 3 administered into solution with a lipophilic microphase-forming material. At time 0, an 8.02 mg sample of Adsorbate 3 was added to 40 ml of 50 mM 3-(4-morpholino propane sulfonic acid) sodium salt (MOPS) buffer at pH 7.4, containing 5 mg/mL of Tween 80 (available from ICI Americas Inc); the concentration of drug would have been 50 μg/mL, if all of the drug had dissolved. The test solution was stirred at room temperature in a syringe equipped with a Gelman Acrodisc 13 CR 0.45 μm PTFE filter, as described for Example 1. Samples were collected and analyzed using UV to determine the concentration of Drug 3 in solution.
Control 8 consisted of Adsorbate 3 administered into PBS without the lipophilic microphase-forming material, and a sufficient amount of sample was added so that the concentration of drug would have been 50 μg/mL, if all of the drug had dissolved.
Control 9 consisted of crystalline Drug 3 administered into PBS containing Tween 80, and a sufficient amount of Drug 3 was added so that the concentration would have been 50 μg/mL, if all of the drug had dissolved.
Control 10 consisted of crystalline Drug 3 administered into PBS without the lipophilic microphase-forming material, and a sufficient amount of sample was added so that the concentration of drug would have been 50 μg/mL, if all of the drug had dissolved.

Compound: CCOC(=O)N1c2ccc(C(F)(F)F)cc2[C@@H](N(Cc2cc(C(F)(F)F)cc(C(F)(F)F)c2)C(=O)OC)C[C@H]1CC [Control 3, [2R,4S] 4-[(3,5-bis-trifluoromethyl-benzyl)-methoxycarbonyl-amino]-2-ethyl-6-trifluoromethyl-3,4-dihydro-2H-quinoline-1-carboxylic acid ethyl ester]
- AUC90 ([1]; Drug 1, area under the aqueous concentration versus time curve after 90 minutes): <45 µg·min/mL
- AUC ([1]; Drug 1, time 0 min): 0 µg·min/mL
- AUC ([1]; Drug 1, time 1 min): <1 µg·min/mL
- AUC ([1]; Drug 1, time 3 min): <2 µg·min/mL
- AUC ([1]; Drug 1, time 5 min): <3 µg·min/mL
- AUC ([1]; Drug 1, time 10 min): <5 µg·min/mL
- AUC ([1]; Drug 1, time 15 min): <8 µg·min/mL
- AUC ([1]; Drug 1, time 20 min): <10 µg·min/mL
- AUC ([1]; Drug 1, time 30 min): <15 µg·min/mL
- AUC ([1]; Drug 1, time 45 min): <23 µg·min/mL
- AUC ([1]; Drug 1, time 60 min): <30 µg·min/mL
- AUC ([1]; Drug 1, time 90 min): <45 µg·min/mL
- AUC ([1]; Drug 1, time 120 min): <60 µg·min/mL
- AUC ([1]; Drug 1, time 1200 min): <600 µg·min/mL
- MDC90 ([1]; maximum concentration of Drug 1 in solution during the first 90 minutes): <0.5 µg/mL
- Drug 1 Concentration ([1]; time 0 min): <0.5 µg/mL
- Drug 1 Concentration ([1]; time 1 min): <0.5 µg/mL
- Drug 1 Concentration ([1]; time 3 min): <0.5 µg/mL
- Drug 1 Concentration ([1]; time 5 min): <0.5 µg/mL
- Drug 1 Concentration ([1]; time 10 min): <0.5 µg/mL
- Drug 1 Concentration ([1]; time 15 min): <0.5 µg/mL
- Drug 1 Concentration ([1]; time 20 min): <0.5 µg/mL
- Drug 1 Concentration ([1]; time 30 min): <0.5 µg/mL
- Drug 1 Concentration ([1]; time 45 min): <0.5 µg/mL
- Drug 1 Concentration ([1]; time 60 min): <0.5 µg/mL
- Drug 1 Concentration ([1]; time 90 min): <0.5 µg/mL
- Drug 1 Concentration ([1]; time 120 min): <0.5 µg/mL
- Drug 1 Concentration ([1]; time 1200 min): <0.5 µg/mL

Compound: CC[C@@H]1C[C@H](N(Cc2cc(C(F)(F)F)cc(C(F)(F)F)c2)C(=O)OC)c2cc(C(F)(F)F)ccc2N1C(=O)OC(C)C [Control 7, [2R,4S] 4-[(3,5-bis-trifluoromethyl-benzyl)-methoxycarbonyl-amino]-2-ethyl-6-trifluoromethyl-3,4-dihydro-2H-quinoline-1-carboxylic acid isopropyl ester]
- AUC90 ([2]; Drug 2, area under the aqueous concentration versus time curve after 90 minutes): <45 µg·min/mL
- AUC ([2]; Drug 2, time 0 min): 0 µg·min/mL
- AUC ([2]; Drug 2, time 1 min): <1 µg·min/mL
- AUC ([2]; Drug 2, time 2 min): <1 µg·min/mL
- AUC ([2]; Drug 2, time 3 min): <2 µg·min/mL
- AUC ([2]; Drug 2, time 5 min): <3 µg·min/mL
- AUC ([2]; Drug 2, time 10 min): <5 µg·min/mL
- AUC ([2]; Drug 2, time 15 min): <8 µg·min/mL
- AUC ([2]; Drug 2, time 20 min): <10 µg·min/mL
- AUC ([2]; Drug 2, time 30 min): <15 µg·min/mL
- AUC ([2]; Drug 2, time 45 min): <23 µg·min/mL
- AUC ([2]; Drug 2, time 64 min): <32 µg·min/mL
- AUC ([2]; Drug 2, time 90 min): <45 µg·min/mL
- AUC ([2]; Drug 2, time 160 min): <80 µg·min/mL
- AUC ([2]; Drug 2, time 1200 min): <600 µg·min/mL
- MDC90 ([2]; maximum concentration of Drug 2 in solution during the first 90 minutes): <0.5 µg/mL
- Drug 2 Concentration ([2]; time 0 min): <0.5 µg/mL
- Drug 2 Concentration ([2]; time 1 min): <0.5 µg/mL
- Drug 2 Concentration ([2]; time 2 min): <0.5 µg/mL
- Drug 2 Concentration ([2]; time 3 min): <0.5 µg/mL
- Drug 2 Concentration ([2]; time 5 min): <0.5 µg/mL
- Drug 2 Concentration ([2]; time 10 min): <0.5 µg/mL
- Drug 2 Concentration ([2]; time 15 min): <0.5 µg/mL
- Drug 2 Concentration ([2]; time 20 min): <0.5 µg/mL
- Drug 2 Concentration ([2]; time 30 min): <0.5 µg/mL
- Drug 2 Concentration ([2]; time 45 min): <0.5 µg/mL
- Drug 2 Concentration ([2]; time 64 min): <0.5 µg/mL
- Drug 2 Concentration ([2]; time 90 min): <0.5 µg/mL
- Drug 2 Concentration ([2]; time 160 min): <0.5 µg/mL
- Drug 2 Concentration ([2]; time 1200 min): <0.5 µg/mL

Compound: O=C1Cc2cc(CCN3CCN(c4nsc5ccccc45)CC3)c(Cl)cc2N1 [Control 10]
- AUC90 ([3]; Drug 3, area under the aqueous concentration versus time curve after 90 minutes): <90 µg·min/mL
- AUC ([3]; Drug 3, time 0 min): <1 µg·min/mL
- AUC ([3]; Drug 3, time 5 min): <5 µg·min/mL
- AUC ([3]; Drug 3, time 10 min): <10 µg·min/mL
- AUC ([3]; Drug 3, time 20 min): <20 µg·min/mL
- AUC ([3]; Drug 3, time 40 min): <40 µg·min/mL
- AUC ([3]; Drug 3, time 90 min): <90 µg·min/mL
- AUC ([3]; Drug 3, time 1260 min): <1260 µg·min/mL
- MDC90 ([3]; maximum concentration of Drug 3 in solution during the first 90 minutes): <1 µg/mL
- Drug 3 Concentration ([3]; time 0 min): <1 µg/mL
- Drug 3 Concentration ([3]; time 5 min): <1 µg/mL
- Drug 3 Concentration ([3]; time 10 min): <1 µg/mL
- Drug 3 Concentration ([3]; time 20 min): <1 µg/mL
- Drug 3 Concentration ([3]; time 40 min): <1 µg/mL
- Drug 3 Concentration ([3]; time 90 min): <1 µg/mL
- Drug 3 Concentration ([3]; time 1260 min): <1 µg/mL

Reference: US9023393B2, “Pharmaceutical compositions of adsorbates of amorphous drugs and lipophilic microphase-forming materials” (Bend Research, Inc., priority 2003, dated 2015)
